Our source for the melting point values is patent US8580790B2, “(Heterocycle/condensed piperidine)-(piperazinyl)-1-alkanone or (heterocycle/condensed pyrrolidine)-(piperazinyl)-1-alkanone derivatives and use thereof as p75 inhibitors” (Sanofi, priority 2009, dated 2013).

Where a name gives a salt, the structure may show the parent alone.

For orientation: melting point means the temperature, or range, at which the solid turns liquid. With `O=C(CN1CC2CCC(C1)N2c1ccc(C(F)(F)F)cn1)N1CCc2nc(-c3ccccc3)[nH]c2C1`, the melting point lay in the range of 150 to 152 °C.
With `O=C(CN1CC2CCC(C1)N2c1ncc(F)cn1)N1CCc2cc(-c3ccccc3)oc2C1`, the melting point lay in the range of 165 to 167 °C.
Under `C[C@@H]1CN(c2ccc(C(F)(F)F)cn2)C[C@H](C)N1CC(=O)N1CCc2nn(CC(F)(F)F)cc2C1` (as salt: oxalate) [compound 126, 2-[(2S,6R)-2,6-dimethyl-4-(5-trifluoromethylpyridin-2-yl)piperazin-1-yl]-1-[2-(2,2,2-trifluoroethyl)-2,4,6,7-tetrahydropyrazolo[4,3-c]pyridin-5-yl]ethanone] stands 151 to 153 °C; under `COC(=O)c1ccc(N2C[C@@H](C)N(CC(=O)N3CCc4nn(-c5ccccc5)cc4C3)[C@@H](C)C2)nc1` (as salt: HCl) [compound 23, 6-{(3S,5R)-3,5-dimethyl-4-[2-oxo-2-(2-phenyl-2,4,6,7-tetrahydropyrazolo[4,3-c]pyridin-5-yl)ethyl]piperazin-1-yl}nicotinic acid methyl ester], 210 to 212 °C; under `C[C@@H]1CN(CC(=O)N2CCc3nc(-c4ccccc4)sc3C2)[C@@H](C)CN1c1ccc(C#N)cn1` [compound 59, 6-{(2R,5S)-2,5-dimethyl-4-[2-oxo-2-(2-phenyl-6,7-dihydro-4H-thiazolo[5,4-c]pyridin-5-yl)ethyl]piperazin-1-yl}nicotinonitrile], 159 to 160 °C.
Then `C[C@@H]1CN(c2cccnc2)C[C@H](C)N1CC(=O)N1CCc2nn(-c3ccc(F)cn3)cc2C1` [compound 142, 2-((2S,6R)-2,6-dimethyl-4-pyridin-3-ylpiperazin-1-yl)-1-[2-(5-fluoropyridin-2-yl)-2,4,6,7-tetrahydropyrazolo[4,3-c]pyridin-5-yl]ethanone], with 180 to 181 °C.
Under `O=C(CN1CC2CCC(C1)N2c1cccnc1)N1CCc2nn(-c3ccc(C(F)(F)F)cn3)cc2C1` stands 150 to 151 °C; under `C[C@@H]1CN(c2cncnc2)C[C@H](C)N1CC(=O)N1CCc2nc(-c3ccccc3)sc2C1` [compound 22, 2-((2S,6R)-2,6-dimethyl-4-pyrimidin-5-yl-piperazin-1-yl)-1-(2-phenyl-6,7-dihydro-4H-thiazolo[5,4-c]pyridin-5-yl)ethanone], 215 to 216 °C; under `C[C@@H]1CN(c2ccc(C(=O)O)cn2)C[C@H](C)N1CC(=O)N1CCc2nn(C(C)(C)C)cc2C1` [compound 105, 6-{(3S,5R)-4-[2-(2-tert-butyl-2,4,6,7-tetrahydropyrazolo[4,3-c]pyridin-5-yl)-2-oxoethyl]-3,5-dimethylpiperazin-1-yl}nicotinic acid], 120 to 121 °C.
`C[C@@H]1CN(c2ccc(C(F)(F)F)cn2)C[C@H](C)N1CC(=O)N1CCc2nn(-c3ccccn3)cc2C1` [compound 118, 2-[(2S,6R)-2,6-dimethyl-4-(5-trifluoromethylpyridin-2-yl)piperazin-1-yl]-1-(2-pyridin-2-yl-2,4,6,7-tetrahydropyrazolo[4,3-c]pyridin-5-yl)ethanone] came in with a melting point of 165 to 166 °C.
Under `O=C(CN1CC2CCC(C1)N2c1ncc(F)cn1)N1CCc2c(cnn2CC(F)(F)F)C1` (as salt: oxalate) stands 160 to 162 °C.
Then `COC(=O)c1ccc(N2C[C@@H](C)N(CC(=O)N3CCc4c(cnn4C(C)(C)C)C3)[C@@H](C)C2)nc1` [compound 92, 6-{(3S,5R)-4-[2-(1-tert-butyl-1,4,6,7-tetrahydropyrazolo[4,3-c]pyridin-5-yl)-2-oxoethyl]-3,5-dimethylpiperazin-1-yl}nicotinic acid methyl ester], with 134 to 135 °C; and `O=C(O)c1ccc(N2C3CCC2CN(CC(=O)N2CCc4nc(-c5ccc(F)cc5)sc4C2)C3)nc1`, with 240 to 244 °C.
Then `O=C(CN1CCCN(c2cccnc2)CC1)N1CCc2nc(-c3ccccc3)sc2C1` (as salt: HCl) [compound 30, 1-(2-phenyl-6,7-dihydro-4H-thiazolo[5,4-c]pyridin-5-yl)-2-(4-pyridin-3-yl-[1,4]diazepan-1-yl)ethanone], with 142 to 145 °C.
Turning to `COC(=O)c1ccc(N2C3CCC2CN(CC(=O)N2Cc4nc(-c5ccccc5)sc4C2)C3)nc1`, the melting point was in the range of 252 to 253 °C.
On to `O=C(CN1CC2CCC(C1)N2c1ncc(F)cn1)N1CCc2nc(-c3ccc(F)cc3)sc2C1`, for which the melting point lay within 196 to 198 °C.
Then `C[C@@H]1CN(c2ccc(-c3nnnn3C)cn2)C[C@H](C)N1CC(=O)N1CCc2nn(-c3ccccc3)cc2C1` [compound 86, 2-{(2S,6R)-2,6-dimethyl-4-[5-(1-methyl-1H-tetrazol-5-yl)pyridin-2-yl]piperazin-1-yl}-1-(2-phenyl-2,4,6,7-tetrahydropyrazolo[4,3-c]pyridin-5-yl)ethanone], with 198 to 199 °C.
Under `COc1ccc(-n2cc3c(n2)CCN(C(=O)CN2CC4CCC(C2)N4c2ncc(F)cn2)C3)cc1` stands 186 to 188 °C; under `Cc1nc(-c2ccc(N3C4CCC3CN(CC(=O)N3CCc5nc(-c6ccccc6)sc5C3)C4)nc2)no1`, 190 to 192 °C; under `O=C(O)c1ccc(N2C3CCC2CN(CC(=O)N2CCc4nc(-c5ccsc5)sc4C2)C3)nc1`, 262 to 264 °C.
Then `COc1ccc(-c2nc3c(s2)CN(C(=O)CN2CC4CCC(C2)N4c2ncc(F)cn2)CC3)cc1`, with 203 to 207 °C.
`C[C@@H]1CN(c2ccc(C(=O)O)cn2)C[C@H](C)N1CC(=O)N1CCc2nc(-c3ccccc3)[nH]c2C1` [compound 116, 6-{(3S,5R)-3,5-dimethyl-4-[2-oxo-2-(2-phenyl-3,4,6,7-tetrahydroimidazo[4,5-c]pyridin-5-yl)ethyl]piperazin-1-yl}nicotinic acid] showed a melting point of 190 to 192 °C.
`O=C(CN1CC2CC1CN2c1ccc(C(F)(F)F)nn1)N1CCc2nn(-c3ccc(C(F)(F)F)cn3)cc2C1` (stereo not drawn) [compound 107, 2-[5-(6-trifluoromethylpyridazin-3-yl)-2,5-diazabicyclo[2.2.1]hept-2-yl]-1-[2-(5-trifluoromethylpyridin-2-yl)-2,4,6,7-tetrahydropyrazolo[4,3-c]pyridin-5-yl]ethanone] gave a melting point of 140 to 141 °C.
Under `COc1ccc(-c2nc3c(s2)CN(C(=O)CN2CC4CC2CN4c2ccc(C(F)(F)F)cn2)CC3)cc1` (stereo not drawn) [compound 133, 1-[2-(4-methoxyphenyl)-6,7-dihydro-4H-thiazolo[5,4-c]pyridin-5-yl]-2-[5-(5-trifluoromethylpyridin-2-yl)-2,5-diazabicyclo[2.2.1]hept-2-yl]ethanone] stands 70 to 73 °C.
Under `O=C(CN1CC2CCC(C1)N2c1ncc(F)cn1)N1CCc2sc(-c3ccccc3)nc2C1` stands 180 to 184 °C.
Under `COC(=O)c1ccc(N2C3CCC2CN(CC(=O)N2CCc4nn(-c5ccc(C(F)(F)F)cn5)cc4C2)C3)nc1` stands 217 to 218 °C.
Molecule `C[C@@H]1CN(c2cccnc2)C[C@H](C)N1CC(=O)N1CCc2nn(-c3ccncc3)cc2C1` [compound 141, 2-((2S,6R)-2,6-dimethyl-4-pyridin-3-ylpiperazin-1-yl)-1-(2-pyridin-4-yl-2,4,6,7-tetrahydropyrazolo[4,3-c]pyridin-5-yl)ethanone] showed a melting point of 163 to 164 °C.
Under `COc1ccc(-n2ncc3c2CCN(C(=O)CN2CC4CCC(C2)N4c2ncc(F)cn2)C3)cc1` stands 194 to 195 °C; under `O=C(CN1CCN(c2ccc(C(F)(F)F)cn2)C(=O)C1)N1CCc2sc(-c3ccccc3)nc2C1` [compound 82, 4-[2-oxo-2-(2-phenyl-6,7-dihydro-4H-thiazolo[4,5-c]pyridin-5-yl)ethyl]-1-(5-trifluoromethylpyridin-2-yl)piperazin-2-one], 140 to 142 °C.
Under `O=C(CN1CCN(c2ccc(C(F)(F)F)cn2)C(=O)C1)N1CCc2nn(-c3ccc(C(F)(F)F)cn3)cc2C1` [compound 65, 4-{2-oxo-2-[2-(5-trifluoromethylpyridin-2-yl)-2,4,6,7-tetrahydropyrazolo[4,3-c]pyridin-5-yl]ethyl}-1-(5-trifluoromethylpyridin-2-yl)piperazin-2-one] stands 200 to 201 °C.
Under `COc1ccc(-c2nc3c(s2)CN(C(=O)CN2CCN(c4ccc(C(F)(F)F)cn4)C(=O)C2)CC3)cc1` [compound 34, 4-{2-[2-(4-methoxyphenyl)-6,7-dihydro-4H-thiazolo[5,4-c]pyridin-5-yl]-2-oxoethyl}-1-(5-trifluoromethylpyridin-2-yl)piperazin-2-one] stands 191 to 193 °C; under `O=C(CN1CC2CCC(C1)N2c1ccc(C(F)(F)F)cn1)N1CCc2nn(-c3ccccn3)cc2C1`, 170 to 171 °C.
For the molecule `O=C(CN1CC2CCC(C1)N2c1ncc(F)cn1)N1CCc2cc(-c3ccccc3)[nH]c2C1`, the melting point fell in the range of 240 to 242 °C.
`O=C(CN1CC2CCC(C1)N2c1cccnc1)N1CCc2nn(-c3ccccn3)cc2C1` came in with a melting point of 61 to 62 °C.
In turn, `COC(=O)c1ccc(N2CC3CCC(C2)N3CC(=O)N2CCc3nc(-c4ccccc4)sc3C2)nc1` had a melting point of 162 to 163 °C.
Then `COC(=O)c1ccc(N2CCN(CC(=O)N3CCc4nc(-c5ccccc5)sc4C3)CC2=O)nc1` [compound 25, 6-{2-oxo-4-[2-oxo-2-(2-phenyl-6,7-dihydro-4H-thiazolo[5,4-c]pyridin-5-yl)ethyl]piperazin-1-yl}nicotinic acid methyl ester], with 191 to 192 °C; and `O=C(CN1CC2CCC(C1)N2c1ccc(-c2nnn[nH]2)cn1)N1CCc2nc(-c3ccccc3)sc2C1`, with 201 to 202 °C.
`COC(=O)c1ccc(N2C3CCC2CN(CC(=O)N2CCc4nc(-c5ccc(OC)cc5)sc4C2)C3)nc1` displayed a melting point of 159 to 160 °C.
Under `C[C@@H]1CN(c2ncc(C(=O)O)cn2)C[C@H](C)N1CC(=O)N1CCc2nn(-c3ccccc3)cc2C1` [compound 75, 2-{(3S,5R)-3,5-dimethyl-4-[2-oxo-2-(2-phenyl-2,4,6,7-tetrahydropyrazolo[4,3-c]pyridin-5-yl)ethyl]piperazin-1-yl}pyrimidine-5-carboxylic acid] stands 94 to 97 °C.
